In brackets after ≈: the same amount, converted by molar mass.
How the values were obtained:
Assay type in all cases: cell-based
S. aureus 3136 = assay: MIC against S. aureus 3136; details: Table 2, S. aureus 3136, MSSA
Excerpt: (§1) Without limitation, the present cephem compounds alone, or in combination with one or more β-lactamase inhibitors, may provide improved antibacterial efficacy, particularly in antibiotic-resistant bacterial strains. It is believed that the present compounds may be structurally different from known compounds and, as a result, may be more basic in nature. It is an advantage that the present compounds may extend the spectrum of effective bacterial compounds, particularly against previously-resistant bacteria (e.g. ESKAPE organisms), and/or gram negative bacteria, without significant side effects. In a preferred embodiment, the present cephem compound may comprise reference compound ceftazidime, which may be used alone, or in combination with one or more β-lactamase inhibitors, such as NXL-104. As shown, the foregoing composition was tested for minimum inhibitory concentration (MIC, μg/mL) against bacteria listed in Tables 2-3.

S. pneumoniae 2407 = assay: MIC against S. pneumoniae 2407; details: Table 2, S. pneumoniae 2407, Pen S
Excerpt: as §1

K. pneumoniae 4108 = assay: MIC against K. pneumoniae 4108; details: K. pneumoniae 4108, KPC-3, TEM-166, SHV-12, SHV-141
Procedure: (§2) As shown, the foregoing composition was tested for minimum inhibitory concentration (MIC, μg/mL) against bacteria listed in Tables 2-3.

C. freundii 579 = assay: MIC against C. freundii 579; details: Table 2, C. freundii 579, Caz R, IMP S
Excerpt: as §1

E. coli 2668 = assay: MIC against E. coli 2668; details: Table 2, E. coli 2668, OXA-48
Excerpt: as §1

E. coli 4080 = assay: MIC against E. coli 4080; details: Table 2, E. coli 4080, TEM-10
Excerpt: as §1

K. baumanii 4091 = assay: MIC against K. baumanii 4091; details: Table 2, K. baumanii 4091, OXA-23
Excerpt: as §1

K. pneumoniae 2713 = assay: MIC against K. pneumoniae 2713; details: Table 3, K. pneumoniae 2713, KPC-3, VIM-1
Procedure: as §2

S. pneumoniae 2492 = assay: MIC against S. pneumoniae 2492; details: Table 2, S. pneumoniae 2492, Pen R
Excerpt: as §1

S. pneumoniae 2405 = assay: MIC against S. pneumoniae 2405; details: Table 2, S. pneumoniae 2405, Pen S
Excerpt: as §1

S. pneumoniae 2404 = assay: MIC against S. pneumoniae 2404; details: Table 2, S. pneumoniae 2404, Pen S
Excerpt: as §1

E. coli 4098 = assay: MIC against E. coli 4098; details: Table 2, E. coli 4098, CTX-M-15, TEM-1
Excerpt: as §1

E. coli 2671 = assay: MIC against E. coli 2671; details: Table 2, E. coli 2671, VIM-19
Excerpt: as §1

P. aeruginosa 2686 = assay: MIC against P. aeruginosa 2686; details: Table 3, P. aeruginosa 2686, KPC-2
Procedure: as §2

C. freundii 580 = assay: MIC against C. freundii 580; details: Table 2, C. freundii 580, Caz R, IMP S
Excerpt: as §1

E. cloacae 2710 = assay: MIC against E. cloacae 2710; details: Table 3, E. cloacae 2710, KPC-3, VIM-1
Procedure: as §2

E. cloacae 2044 = assay: MIC against E. cloacae 2044; details: Table 2, E. cloacae 2044, Caz S, IMP S
Excerpt: as §1

K. baumanii 2579 = assay: MIC against K. baumanii 2579; details: Table 2, K. baumanii 2579, OXA-25
Excerpt: as §1

S. pneumoniae 2493 = assay: MIC against S. pneumoniae 2493; details: Table 2, S. pneumoniae 2493, Pen R
Excerpt: as §1

S. pneumoniae 2406 = assay: MIC against S. pneumoniae 2406; details: Table 2, S. pneumoniae 2406, Pen S
Excerpt: as §1

K. pneumoniae 2689 = assay: MIC against K. pneumoniae 2689; details: K. pneumoniae 2689, KPC-2
Procedure: as §2

S. aureus 3144 = assay: MIC against S. aureus 3144; details: Table 2, S. aureus 3144, MSSA
Excerpt: as §1

S. pneumoniae ATCC 6301 = assay: MIC against S. pneumoniae ATCC 6301; details: Table 2, S. pneumoniae ATCC 6301, Pen S
Excerpt: as §1

E. cloacae 2706 = assay: MIC against E. cloacae 2706; details: Table 3, E. cloacae 2706, VIM-1, KPC-3
Procedure: as §2

[1] = Table 2, in combination with NXL-104
[2] = Table 3, in combination with NXL-104

- MIC (S. aureus 3136; alone): 8.00 µg/mL
- MIC (S. aureus 3136; in combination with NXL-104): 8.00 µg/mL
- MIC (S. pneumoniae 2407; alone): 4.00 µg/mL
- MIC (S. pneumoniae 2407; in combination with NXL-104): 32.00 µg/mL
- MIC (K. pneumoniae 4108; Table 2, alone): 16.00 µg/mL (≈ 29.3 µM)
- MIC (K. pneumoniae 4108; [1]): 4.00 µg/mL
- MIC (K. pneumoniae 4108; Table 3, alone): >32 µg/mL
- MIC (K. pneumoniae 4108; [2]): 4 µg/mL
- MIC (C. freundii 579; alone): 4.00 µg/mL
- MIC (C. freundii 579; in combination with NXL-104): 2.00 µg/mL
- MIC (E. coli 2668; alone): 1.00 µg/mL
- MIC (E. coli 2668; in combination with NXL-104): 0.50 µg/mL
- MIC (E. coli 4080; alone): 16.00 µg/mL
- MIC (E. coli 4080; in combination with NXL-104): 4.00 µg/mL
- MIC (K. baumanii 4091; alone): >32 µg/mL
- MIC (K. baumanii 4091; in combination with NXL-104): 16.00 µg/mL
- MIC (K. pneumoniae 2713; alone): >32 µg/mL
- MIC (K. pneumoniae 2713; in combination with NXL-104): 8 µg/mL
- MIC (S. pneumoniae 2492; alone): 8.00 µg/mL
- MIC (S. pneumoniae 2492; in combination with NXL-104): 8.00 µg/mL
- MIC (S. pneumoniae 2405; alone): 0.25 µg/mL
- MIC (S. pneumoniae 2405; in combination with NXL-104): 0.25 µg/mL
- MIC (S. pneumoniae 2404; alone): 32.00 µg/mL
- MIC (S. pneumoniae 2404; in combination with NXL-104): 32.00 µg/mL
- MIC (E. coli 4098; alone): 2.00 µg/mL
- MIC (E. coli 4098; in combination with NXL-104): 0.50 µg/mL
- MIC (E. coli 2671; alone): 32.00 µg/mL
- MIC (E. coli 2671; in combination with NXL-104): 32.00 µg/mL
- MIC (P. aeruginosa 2686; alone): >32 µg/mL
- MIC (P. aeruginosa 2686; in combination with NXL-104): 16 µg/mL
- MIC (C. freundii 580; alone): 8.00 µg/mL
- MIC (C. freundii 580; in combination with NXL-104): 2.00 µg/mL
- MIC (E. cloacae 2710; alone): >32 µg/mL
- MIC (E. cloacae 2710; in combination with NXL-104): >32 µg/mL
- MIC (E. cloacae 2044; alone): 1.00 µg/mL
- MIC (E. cloacae 2044; in combination with NXL-104): 0.25 µg/mL
- MIC (K. baumanii 2579; alone): >32 µg/mL
- MIC (K. baumanii 2579; in combination with NXL-104): >32 µg/mL
- MIC (S. pneumoniae 2493; alone): 16.00 µg/mL
- MIC (S. pneumoniae 2493; in combination with NXL-104): 16.00 µg/mL
- MIC (S. pneumoniae 2406; alone): 0.12 µg/mL
- MIC (S. pneumoniae 2406; in combination with NXL-104): 0.12 µg/mL
- MIC (K. pneumoniae 2689; Table 2, alone): 32.00 µg/mL (≈ 58.5 µM)
- MIC (K. pneumoniae 2689; [1]): 4.00 µg/mL
- MIC (K. pneumoniae 2689; Table 3, alone): >32 µg/mL
- MIC (K. pneumoniae 2689; [2]): 4 µg/mL
- MIC (S. aureus 3144; alone): 16.00 µg/mL
- MIC (S. aureus 3144; in combination with NXL-104): 16.00 µg/mL
- MIC (S. pneumoniae ATCC 6301; alone): 0.12 µg/mL
- MIC (S. pneumoniae ATCC 6301; in combination with NXL-104): 0.12 µg/mL
- MIC (E. cloacae 2706; alone): >32 µg/mL
- MIC (E. cloacae 2706; in combination with NXL-104): 32 µg/mL
Structure (SMILES): CC(C)(O/N=C(\C(=O)N[C@@H]1C(=O)N2C(C(=O)[O-])=C(C[n+]3ccccc3)CS[C@H]12)c1csc(N)n1)C(=O)O [CAZ, ceftazidime, reference compound]

Source: patent USRE48097E1, “Cephem compounds, their production and use” (priority 2015, dated 2020)
